# Experimental data as given in patent publication US4965261A, “Substituted benzoxazinorifamycin derivative and antibacterial agent containing the same” (Kanegafuchi Kagaku Kogyo Kabushiki Kaisha, priority 1988, dated 1990).
# What was measured:
# [1] = system: Mycobacterium tuberculosis H37 Rv; assay: Therapeutic effect on mice experimentally infected with tuberculosis (FIG. 1, groups of 20 mice); conditions: oral, 200 μg/mouse, once a day, six days a week
# Source text: In FIG. 1, the point, a, means the time that mice were infected, and the point, b, means the time that the treatment started.
# [2] = system: Bacillus subtilis IFO 3134; assay: Antibacterial activity, standard method of Japan Society of Chemotherapy (Table 2); type: cell-based; conditions: IFO3134, read-out: Minimal inhibitory concentration
# Source text: (§1) Derivative No. in Table 2 corresponds to derivative No. in Table 1.
# [3] = system: Escherichia coli IFO 12734; assay: as above; type: cell-based; conditions: IFO12734, read-out: Minimal inhibitory concentration
# Source text: as §1
# [4] = system: Klebsiella pneumoniae IFO 3512; assay: as above; type: cell-based; conditions: IFO3512, read-out: Minimal inhibitory concentration
# Source text: as §1
# [5] = system: Micrococcus luteus IFO 12708; assay: as above; type: cell-based; conditions: IFO12708, read-out: Minimal inhibitory concentration
# Source text: as §1
# [6] = system: Mycobacterium smegmatis ATCC 607; assay: as above; type: cell-based; conditions: Mycolicibacterium smegmatis, ATCC607, read-out: Minimal inhibitory concentration
# Source text: as §1
# [7] = system: Staphylococcus aureus IFO 12732; assay: as above; type: cell-based; conditions: IFO12732, read-out: Minimal inhibitory concentration
# Source text: as §1
# [8] = system: Mycobacterium tuberculosis H37 Rv; assay: Antibacterial activity against a tubercle bacillus, two-fold dilution in Kirchner liquid medium; conditions: Kirchner medium with 10% bovine serum, 37° C., 4 weeks
# [9] = Plasma concentration after oral administration to mice, bioassay with Micrococcus luteus IFO 12708; type: in vivo, ddY male mice; conditions: mouse, 20 mg/kg
# Protocol: The derivatives No. 4 and No. 11 shown in Table 1 were orally administered to ddY male mice (7 weeks), respectively, in a dose of 20 mg/kg. The concentration of the test compound in the plasma was measured by a bioassay method employing Micrococcus luteus IFO 12708 as an assay bacterium according to a usual manner. The results are as follows: As for the derivative No. 4, the concentrations in the plasma after 1 hour, 3 hours, 5 hours and 8 hours from the administration were 17.0 μg/ml, 13.3 μg/ml, 14.5 μg/ml, 4.2 μg/ml, respectively. As for the derivative No. 11, the concentrations in the plasma after 1 hour, 3 hours, 5 hours and 8 hours from the administration were 17.3 μg/ml, 16.2 μg/ml, 13.8 μg/ml and 10.1 μg/ml, respectively.
# [10] = system: Mycobacterium tuberculosis H37 Rv; assay: Repeated treatment test of mice infected with tuberculosis, survival on fortieth day (groups of 10 mice); conditions: oral, 200 μg/mouse
SMILES,therapeutic effect as compared with rifampicin [1],MIC [2] [µg/mL],MIC [3] [µg/mL],MIC [4] [µg/mL],MIC [5] [µg/mL],MIC [6] [µg/mL],MIC [7] [µg/mL],Minimal inhibitory concentration ([8]; Table 3) [µg/mL],concentration at 1 h [9] [ng/mL],concentration at 3 h [9] [ng/mL],concentration at 5 h [9] [ng/mL],concentration at 8 h [9] [ng/mL],Survival rate [10] [%],dead mice [10],Minimal inhibitory concentration ([8]; Table 4) [µg/mL]
COC1C=COC2(C)Oc3c(C)c(O)c4c(=O)c(c5oc6cc(N7CCCCC7)ccc6nc-5c4c3C2=O)NC(=O)C(C)=CC=CC(C)C(O)C(C)C(O)C(C)C(OC(C)=O)C1C (stereo not drawn) [Derivative B],inferior to rifampicin,,,,,,,,,,,,,,
CCc1c(N2CCCC2)ccc2nc3c4c5c6c(C)c(O)c4c(=O)c(c-3oc12)NC(=O)C(C)=CC=CC(C)C(O)C(C)C(O)C(C)C(OC(C)=O)C(C)C(OC)C=COC(C)(O6)C5=O (stereo not drawn) [Derivative C],inferior to rifampicin,,,,,,,,,,,,,,
COc1c(N2CCCC2)ccc2nc3c4c5c6c(C)c(O)c4c(=O)c(c-3oc12)NC(=O)C(C)=CC=CC(C)C(O)C(C)C(O)C(C)C(OC(C)=O)C(C)C(OC)C=COC(C)(O6)C5=O (stereo not drawn) [Derivative No. 1],,0.16,> 10,> 10,0.04,2.5,≤ 0.02,0.017,,,,,,,
COc1c(N2CCN(C)CC2)ccc2nc3c4c5c6c(C)c(O)c4c(=O)c(c-3oc12)NC(=O)C(C)=CC=CC(C)C(O)C(C)C(O)C(C)C(OC(C)=O)C(C)C(OC)C=COC(C)(O6)C5=O (stereo not drawn) [Derivative No. 2],,≤ 0.02,2.5,2.5,≤ 0.02,1.25,≤ 0.02,0.15,,,,,,,
COc1c(N2CCN(CC(C)C)CC2)ccc2nc3c4c5c6c(C)c(O)c4c(=O)c(c-3oc12)NC(=O)C(C)=CC=CC(C)C(O)C(C)C(O)C(C)C(OC(C)=O)C(C)C(OC)C=COC(C)(O6)C5=O (stereo not drawn) [Derivative No. 3],,0.04,> 10,> 10,0.08,1.25,≤ 0.02,0.017,,,,,,,
CCOc1c(N2CCCC2)ccc2nc3c4c5c6c(C)c(O)c4c(=O)c(c-3oc12)NC(=O)C(C)=CC=CC(C)C(O)C(C)C(O)C(C)C(OC(C)=O)C(C)C(OC)C=COC(C)(O6)C5=O (stereo not drawn) [Derivative No. 4],,0.04,> 10,> 10,0.04,0.63,≤ 0.02,0.017,17000,13300,14500,4200,100,there was not observed any dead mouse,
CCOc1c(N2CCN(C)CC2)ccc2nc3c4c5c6c(C)c(O)c4c(=O)c(c-3oc12)NC(=O)C(C)=CC=CC(C)C(O)C(C)C(O)C(C)C(OC(C)=O)C(C)C(OC)C=COC(C)(O6)C5=O (stereo not drawn) [Derivative No. 5],,≤ 0.02,2.5,2.5,≤ 0.02,1.25,≤ 0.02,0.035,,,,,,,
CCOc1c(N2CCN(CC)CC2)ccc2nc3c4c5c6c(C)c(O)c4c(=O)c(c-3oc12)NC(=O)C(C)=CC=CC(C)C(O)C(C)C(O)C(C)C(OC(C)=O)C(C)C(OC)C=COC(C)(O6)C5=O (stereo not drawn) [Derivative No. 6],,≤ 0.02,5,2.5,≤ 0.02,0.63,≤ 0.02,,,,,,,,0.008
CCOc1c(N2CCN(C(C)C)CC2)ccc2nc3c4c5c6c(C)c(O)c4c(=O)c(c-3oc12)NC(=O)C(C)=CC=CC(C)C(O)C(C)C(O)C(C)C(OC(C)=O)C(C)C(OC)C=COC(C)(O6)C5=O (stereo not drawn) [Derivative No. 7],,≤ 0.02,5,5,≤ 0.02,1.25,≤ 0.02,0.017,,,,,,,
CCCOc1c(N2CCCC2)ccc2nc3c4c5c6c(C)c(O)c4c(=O)c(c-3oc12)NC(=O)C(C)=CC=CC(C)C(O)C(C)C(O)C(C)C(OC(C)=O)C(C)C(OC)C=COC(C)(O6)C5=O (stereo not drawn) [Derivative No. 9],,0.08,> 10,> 10,0.08,1.25,0.04,0.035,,,,,,,
CCCOc1c(N2CCN(CC(C)C)CC2)ccc2nc3c4c5c6c(C)c(O)c4c(=O)c(c-3oc12)NC(=O)C(C)=CC=CC(C)C(O)C(C)C(O)C(C)C(OC(C)=O)C(C)C(OC)C=COC(C)(O6)C5=O (stereo not drawn) [Derivative No. 10],,0.16,> 10,> 10,0.16,1.25,0.04,0.07,,,,,,,
COC1C=COC2(C)Oc3c(C)c(O)c4c(=O)c(c5oc6c(OC(C)C)c(N7CCCC7)ccc6nc-5c4c3C2=O)NC(=O)C(C)=CC=CC(C)C(O)C(C)C(O)C(C)C(OC(C)=O)C1C (stereo not drawn) [Derivative No. 11],,0.08,> 10,> 10,0.04,1.25,≤ 0.02,0.017,17300,16200,13800,10100,,,
CCN1CCN(c2ccc3nc4c5c6c7c(C)c(O)c5c(=O)c(c-4oc3c2OC(C)C)NC(=O)C(C)=CC=CC(C)C(O)C(C)C(O)C(C)C(OC(C)=O)C(C)C(OC)C=COC(C)(O7)C6=O)CC1 (stereo not drawn) [Derivative No. 12],,≤ 0.02,5,5,≤ 0.02,1.25,≤ 0.02,0.017,,,,,,,
COC1C=COC2(C)Oc3c(C)c(O)c4c(=O)c(c5oc6c(OC(C)C)c(N7CCN(CC(C)C)CC7)ccc6nc-5c4c3C2=O)NC(=O)C(C)=CC=CC(C)C(O)C(C)C(O)C(C)C(OC(C)=O)C1C (stereo not drawn) [Derivative No. 13],,0.16,> 10,> 10,0.16,1.25,0.04,0.07,,,,,100,there was not observed any dead mouse,
COC1C=COC2(C)Oc3c(C)c(O)c4c(=O)c(c5oc6c(OCC(C)C)c(N7CCN(CC(C)C)CC7)ccc6nc-5c4c3C2=O)NC(=O)C(C)=CC=CC(C)C(O)C(C)C(O)C(C)C(OC(C)=O)C1C (stereo not drawn) [Derivative No. 14],,0.08,> 10,> 10,0.31,0.63,0.08,,,,,,,,
COc1c(N2CCCC2)cc(C)c2nc3c4c5c6c(C)c(O)c4c(=O)c(c-3oc12)NC(=O)C(C)=CC=CC(C)C(O)C(C)C(O)C(C)C(OC(C)=O)C(C)C(OC)C=COC(C)(O6)C5=O (stereo not drawn) [Derivative No. 15],,0.08,> 10,> 10,0.04,1.25,0.04,0.008,,,,,,,
COc1c(N2CCN(C)CC2)cc(C)c2nc3c4c5c6c(C)c(O)c4c(=O)c(c-3oc12)NC(=O)C(C)=CC=CC(C)C(O)C(C)C(O)C(C)C(OC(C)=O)C(C)C(OC)C=COC(C)(O6)C5=O (stereo not drawn) [Derivative No. 16],,≤ 0.02,5,5,≤ 0.02,1.25,≤ 0.02,,,,,,,,
COc1c(N2CCN(CC(C)C)CC2)cc(C)c2nc3c4c5c6c(C)c(O)c4c(=O)c(c-3oc12)NC(=O)C(C)=CC=CC(C)C(O)C(C)C(O)C(C)C(OC(C)=O)C(C)C(OC)C=COC(C)(O6)C5=O (stereo not drawn) [Derivative No. 17],,0.04,> 10,> 10,0.08,1.25,≤ 0.02,0.07,,,,,100,there was not observed any dead mouse,
"CO[C@H]1/C=C/O[C@@]2(C)Oc3c(C)c(O)c4c(O)c(c(/C=N/N5CCN(C)CC5)c(O)c4c3C2=O)NC(=O)/C(C)=C\C=C\[C@H](C)[C@H](O)[C@@H](C)[C@@H](O)[C@@H](C)[C@H](OC(C)=O)[C@@H]1C [Rifampicin, reference compound]",,0.08,> 10,5,≤ 0.02,10,≤ 0.02,0.6,,,,,80,,0.3
